Common to all, as to assay type: cell-based
The test system of assay [1] is panel of breast cancer cell lines. Kind of assay: 72-hour in vitro proliferation combination assay, compound A with targeted agents and chemotherapies (Example 3, Table 21).
In the next assay the test system is HCC1187 (TNBC). Kind of assay: Cell viability combination assay (Cell Titer Glo, Bliss synergy matrix), compound A + SN-38. Conditions: HCC1187 1st Replicate (n = 5); SN-38 0.0000 μM; Compound A μM = c0 of row; 72 h. The text has this:
(§1) Cells were passaged according to ATCC guidelines with 0.25% Trypsin/EDTA (1× GIBCO-25200).
(§2) Calculated values were compared to experimental results generated in the sixty-three-concentration checkerboard. Synergy or antagonism scores were generated depending on whether the observed growth inhibition was greater than or less than the calculated values, respectively.
(§3) Data for combination assays is presented in three formats.
(In ATP-based viability assays light output follows the ATP content of the culture.)

Another assay relates to HCC1806. Description: Cell viability combination assay (Cell Titer Glo, Bliss synergy matrix), paclitaxel 4 h pretreatment then compound A. The conditions noted are these: for Synergy Results (95% CI): Paclitaxel 0.000 μM. Here is the method:
as §1
(§4) Viability assessments were performed using Cell Titer Glo™ (Promega #G9241) according to manufactures microwell plate protocol and read for luminescence on Synergy Neo2 plate reader.
(§5) For synergy matrix assays, TNBC cell lines were seeded 10,000 cells per well in clear-bottomed white 96-well plates (Corning #3909) in 100 μL of recommended cell culture medium. Plates were incubated at 37° C. and 100% RH for 20 hours prior to compound exposure.
(§6) Cells were then exposed to compound A with the same checkerboard matrix using D300 dispenser and incubated for 48 hours prior to measurement of viability by Cell Titer Glo.
as §2
(§7) These differences were summed up across the whole checker-board (sixty-three wells) to give cumulative synergy and antagonism scores with units of μM^2% to reflect the 2D surface of the dose responses.
as §3

The subject of the next assay is HCC70. The assay is described as above. The conditions noted are these: Homo sapiens, HCC70, 4 h; read-out: Percent Inhibition. Here is the method: as §1, §4, §5, §6, §2, §7, §3
The subject of another assay is MDA-MB-468. The description is as above. The conditions noted are these: Homo sapiens, MDA-MB-468, 4 h; read-out: Percent Inhibition. How it is done: as §1, §4, §5, §6, §2, §7, §3
The next assay relates to FBXW7. Description: FBXW7 expression by Protein Simple (Simple Western) in TNBC cell lines after paclitaxel. The conditions noted are these: HCC70, MDA-MB-468, HCC1806; paclitaxel 1 μM for 4 hours, overnight incubation.
The next assay deals with MCL1. Kind of assay: Total MCL1 MSD assay in TNBC cell lines after paclitaxel. Conditions: HCC70, MDA-MB-468, HCC1806; paclitaxel 1 μM for 4 hours, overnight incubation. How it is done: (§8) Cell lysates for MSD assays were generated using 1× Lysis Buffer (10× cell signaling CST-9803) 100× Protease Inhibitor, Phosphatase Inhibitor I, Phosphatase Inhibitor II (Meso Scale Discovery Inhibitor Pack R70AA-1, and PMSF (SIGMA cat #7626)
(§9) MCL-BAK and MCL1-BIM dimer assays and total MCL1 assay were developed by MSD Custom Assay Services and run using the MSD U-PLEX Development Pack (K15227N) and protocols' revision “2018 March rev 2”. GAPDH was determined by MSD using standard assay K151PWD. All plates were read on MSD SECTOR Imager 2400 using MSD Read Buffer T (R92TC).
(§10) For MSD assays, TNBC cell lines were seeded 25,000 cells per well in clear-bottomed white 96-well plates (Corning #3909) in recommended cell culture medium. Plates were incubated at 37° C. and 100% RH for 20 hours prior to compound exposure. […] After an additional 20 hours, samples were harvested by aspirating away supernatant and 125 μl of 1× lysis buffer was added to each well. Plates were set on ice briefly and transferred to a rocking platform at 4° C. for 20 minutes. Plates were placed on dry ice, snap frozen for 10 minutes then stored at −80° C. until tested.
(§11) MCL1 and MCL1-BAK and MCL1-BIM dimer assays were run using materials and protocols provided by MSD Custom Assay Services based on their U-Plex technology. […] 150 μl of 2× read buffer was added to each well and plates were read on an MSD SECTOR Imager 2400. […]

The next assay concerns MCL1-BAK Dimer. Kind of assay: MCL1-BAK dimer MSD assay in TNBC cell lines after paclitaxel. The conditions noted are these: HCC70, MDA-MB-468, HCC1806; paclitaxel 1 μM for 4 hours, overnight incubation. Here is the method:
as §8, §9, §10, §11

A further assay relates to MCL1-BIM Dimer. Kind of assay: MCL1-BIM dimer MSD assay in TNBC cell lines after paclitaxel. The conditions noted are these: HCC70, MDA-MB-468, HCC1806; paclitaxel 1 μM for 4 hours, overnight incubation. Here is the method: as §8, §9, §10, §11
The mark [2] stands for this setting: BT-474 cell line, compound A × listed agent, 72-hour in vitro proliferation assay.
Where [3] appears, read: BT-549 cell line, compound A × listed agent, 72-hour in vitro proliferation assay.
[4] abbreviates: KPL-1 cell line, Compound A × named agent, 72-hour proliferation.
Setting [5] is: MCF7, combination with compound A, 72-hour proliferation.
Setting [6] is: MDA-MB-175-VII, combination with compound A, 72-hour proliferation.
Setting [7] is: MDA-MB-231, combination with compound A, 72-hour proliferation.
[8] abbreviates: MDA-MB-361, combination with compound A, 72-hour proliferation.
The mark [9] stands for this setting: MDA-MB-436, combination with compound A, 72-hour proliferation.
The mark [10] stands for this setting: MDA-MB-453, combination with compound A, 72-hour proliferation.
Setting [11] is: MDA-MB-468, combination with compound A, 72-hour proliferation.
[12] abbreviates: SK-BR-3 cell line, combination Compound A × listed agent, 72-hour proliferation.
Setting [13] is: SUM159PT cell line, combination Compound A × listed agent, 72-hour proliferation.
Where [14] appears, read: T47D cell line, combination Compound A × listed agent, 72-hour proliferation.
The mark [15] stands for this setting: ZR-75-1 cell line, combination Compound A × listed agent, 72-hour proliferation.
[16] abbreviates: ZR-75-30 cell line, combination Compound A × listed agent, 72-hour proliferation.
Setting [17] is: Homo sapiens, read-out: Percent Inhibition.
The mark [18] stands for this setting: AU565 cell line, compound A × listed agent, 72-hour in vitro proliferation assay.
The mark [19] stands for this setting: BT-20 cell line, compound A × listed agent, 72-hour in vitro proliferation assay.
Setting [20] is: DU-4475 cell line, compound A × listed agent, 72-hour in vitro proliferation assay.

Entries after “also recorded” stand apart in the source; their conditions may differ.

As usually defined, the inhibition is the drop in the measured response relative to a control, in per cent.

Text for FBXW7: Simple Western immunoassays take place in a capillary. Samples and reagents are loaded into an assay plate and placed in a Protein Simple Instrument. Cell lysates are loaded into the capillary automatically and separated by size as they migrate through a stacking and separation matrix. The separated proteins are then immobilized to the capillary wall via a proprietary, photoactivated capture chemistry. Target proteins are identified using a primary antibody and immunoprobed using an HRP-conjugated secondary antibody and chemiluminescent substrate. The resulting chemiluminescent signal is detected and quantitated.
Lysates were prepared, diluted to 0.5 ug/ml in 1× lysis buffer. Simple Western platform is run on a 384-well plate.
Markers, internal ladders and DTT are provided by Simple Western in lyophilized forms. Reagents are resuspended as protocol describes. 20 uL of water is added to the markers. 40 ul of water is added to DTT, 20 ul of 10× sample buffer and 20 ul of DTT is mixed and called Z buffer. Markers are loaded in 1 A. 5 ul of lysate was added to 1.7 ml Eppendorf tube. 1.2 ul of Z reagent was added to each sample. The samples were heated at 100 C for 5 minutes, allowed to cool than spun in a microfuge for 30 seconds. Samples are loaded in wells A2-12. […] The resulting chemiluminescent signal is detected and quantitated.

As for `CC(=O)O[C@@]12CO[C@@H]1C[C@H](O)[C@@]1(C)C(=O)[C@H](O)C3=C(C)[C@@H](OC(=O)[C@H](O)[C@@H](NC(=O)OC(C)(C)C)c4ccccc4)C[C@@](O)([C@@H](OC(=O)c4ccccc4)[C@H]21)C3(C)C` [Docetaxel], in assay [1] (72 h), the “Best CI Level” value is on record as 170.

For the molecule `CCOc1cc2ncc(C#N)c(Nc3ccc(OCc4ccccn4)c(Cl)c3)c2cc1NC(=O)/C=C/CN(C)C` [Neratinib], the “Bliss Volume” value in [1] (setting [2]) was found to be 28.98; in assay [1] (setting [3]), 17.92; in assay [1] (setting [4]) it was 9.37; in [1] (setting [5]) it was 20.28; in assay [1] (setting [6]) it was 18.28; in assay [1] (setting [7]), 6.82. The “Bliss Volume” value in assay [1] (setting [8]) was found to be 8.05; in assay [1] (setting [9]), 5.24; in assay [1] (setting [11]), 34.71; in assay [1] (setting [12]) it was 28.46; in assay [1] (setting [13]) it was 15.93; in assay [1] (setting [14]), 7.67. In addition, the “Bliss Volume” value in assay [1] (setting [15]) is 13.55; in [1] (setting [16]), 32.84. Further, the HSA volume is 20.36 in [1] (setting [2]); 13.17 in [1] (setting [3]); 2.11 in [1] (setting [4]); 8.47 in assay [1] (setting [5]); 8.80 in assay [1] (setting [6]); 2.87 in assay [1] (setting [7]). Further, the HSA volume is on record as 9.22 in assay [1] (setting [8]); −0.69 in assay [1] (setting [9]); 10.24 in [1] (setting [10]); 11.39 in assay [1] (setting [12]); 11.51 in assay [1] (setting [13]); 2.55 in assay [1] (setting [14]). Further, the HSA volume in assay [1] (setting [15]) is on record as 6.49; in assay [1] (setting [16]) it was 16.20. The “Loewe Volume” value in [1] (setting [2]) is recorded as 18.83; in assay [1] (setting [3]), 13.98; in assay [1] (setting [4]), 2.47; in [1] (setting [5]) it was 8.60; in assay [1] (setting [6]) it was 7.95; in [1] (setting [7]), 5.05. Besides, the “Loewe Volume” value in assay [1] (setting [8]) is 8.69; in assay [1] (setting [9]), 0.79; in assay [1] (setting [10]), 8.51; in assay [1] (setting [11]) it was 9.11; in assay [1] (setting [13]), 12.90; in [1] (setting [14]), 5.95. Besides, the “Loewe Volume” value was determined as 7.51 in [1] (setting [15]) and 14.61 in assay [1] (setting [16]). Moreover, the “Synergy Score” value worked out at 39.01 in assay [1] (setting [2]); 25.15 in assay [1] (setting [3]); 9.97 in assay [1] (setting [4]); 11.07 in assay [1] (setting [6]); 4.59 in [1] (setting [7]); 10.96 in [1] (setting [8]). Besides, the “Synergy Score” value is 4.11 in assay [1] (setting [9]); 16.63 in [1] (setting [10]); 19.05 in assay [1] (setting [11]); 22.77 in assay [1] (setting [12]); 22.98 in [1] (setting [13]); 11.73 in [1] (setting [14]). The “Synergy Score” value in assay [1] (setting [15]) is 10.39; in assay [1] (setting [16]), 30.49. For the same molecule, the “Best CI” value in assay [1] (setting [3]) was 0.31; in assay [1] (setting [4]), 0.55; in assay [1] (setting [5]) it was 0.44; in [1] (setting [6]) it was 0.64; in [1] (setting [9]) it was 0.26; in [1] (setting [10]) it was 0.35. Besides, the “Best CI” value is 0.12 in assay [1] (setting [12]), 0.17 in assay [1] (setting [13]), 0.86 in assay [1] (setting [15]) and 0.41 in [1] (setting [16]).

Take `COc1nn(C)cc1C(=O)N[S@@]1(=O)=NC(=O)c2ccc3c(c2)N(C[C@@H]2CC[C@H]2[C@@H](OC)CCC[C@H](C)C1)C[C@@]1(CCCc2cc(Cl)ccc21)CO3` [Compound A]: the “Percent Inhibition” value with HCC1187 (TNBC) came out at 99.2%. The “Synergy Results (95% CI)” value with HCC1806 (Compound A 0.004 μM), with HCC1806 (Compound A 1.000 μM), in the assay with HCC1806 (Compound A 3.000 μM) and with HCC1806 (Compound A […]) was 0.0 throughout. Besides, in the assay with HCC1806 (setting [17]), the inhibition at 0.004 µM was determined as 0.7%. Further, in the assay with HCC1806 (setting [17]), the inhibition at 1 µM is 8.6%. In the assay with HCC1806 (setting [17]), the inhibition at 3 µM came to 17.9%.

As to `N.N.[Cl][Pt][Cl]` [Cisplatin], the “Best CI Level” value in [1] (setting [18]) is 35; in [1] (setting [19]), 65; in assay [1] (setting [3]), 160; in [1] (CAL-120 cell line, compound A × listed agent, 72-hour in vitro proliferation assay) it was 35; in assay [1] (CAL-148 cell line, compound A × listed agent, 72-hour in vitro proliferation assay) it was 140; in assay [1] (setting [20]), 40. The “Best CI Level” value in [1] (HCC1143 cell line, compound A × listed agent, 72-hour in vitro proliferation assay) is listed as 55.

For `N.N.O=C([O-])C1(C(=O)[O-])CCC1.[Pt+2]` [Carboplatin], the “Best CI Level” value was 40 in assay [1] (setting [18]); 170 in [1] (setting [19]); 165 in assay [1] (CAL-51 cell line, compound A × listed agent, 72-hour in vitro proliferation assay); 110 in assay [1] (CAL-85-1 cell line, compound A × listed agent, 72-hour in vitro proliferation assay); 180 in assay [1] (CAMA-1 cell line, compound A × listed agent, 72-hour in vitro proliferation assay); 180 in [1] (setting [20]). Also, the “Best CI Level” value in assay [1] (EVSA-T cell line, compound A × listed agent, 72-hour in vitro proliferation assay) was 180.

As for `CC(=O)O[C@H]1C(=O)[C@@]2(C)[C@H]([C@H](OC(=O)c3ccccc3)[C@]3(O)C[C@H](OC(=O)[C@H](O)[C@@H](NC(=O)c4ccccc4)c4ccccc4)C(C)=C1C3(C)C)[C@]1(OC(C)=O)CO[C@@H]1C[C@@H]2O` [Paclitaxel], in the assay with HCC70, the inhibition at 0.0005 µM was -2.3%, the inhibition at 1 µM is 53.3% and the inhibition at 3 µM turned out to be 61.4%. Further, in the assay with MDA-MB-468, the inhibition at 0.0005 µM is 1.1%, the inhibition at 1 µM was determined as 65.1% and the inhibition at 3 µM came out at 70.5%. In the assay with FBXW7, the “FBXW7 protein levels vs vehicle control (in words)” value is given as “Increases; also recorded: elevated”. In addition, in the assay on MCL1, the “MCL1 protein levels vs vehicle control (in words)” value is “Decreases; also recorded: reduced”. Moreover, the “protein levels of MCL1-BAK dimers vs vehicle control (in words)” value with MCL1-BAK Dimer is reported as “Decreases; also recorded: reduced”. Further, in the assay on MCL1-BIM Dimer, the “protein levels of MCL1-BIM dimers vs vehicle control (in words)” value is recorded as “Decreases; also recorded: reduced”.
